One assay has as its system HCC827P. In words: Cell growth inhibition by SRB method. Type of assay: cell-based, human. The following applies: for IC50: 72 hrs exposure, SRB. From the text:
(§1) Six human cancer cell lines have been used to evaluate effects of the compounds on proliferation of cancer cells. These cell lines include HCC827-P (or HCC827 parent cells), human non-small lung cancer cells, Parent NSCLC HCC827 cell line (which harbors EGFR gene amplification, Exon 19 (E19) deletion, and Exon 21 mutation (Wang, Ramakrishnan et al. 2010), and is an EGFRi sensitive cell line (Kim, Kim et al. 2010)); HCC827-TR16 (Tarceva-resistant HCC727 cell line), HCC827-OR16 (AZD9291-resistant HCC727 cell line), LNCaP (human prostate cancer cells—a hormonal-therapy sensitive cell line (Wang, Liu et al. 1997)); 22RV1 (human prostate cancer cells—a hormonal-therapy resistant cell line (Sramkoski, Pretlow et al. 1999)); and ACHN (human renal adenocarcinoma cells (Park, Jung et al. 2003)). LNCaP cells and 22RV1 cells were purchased from the American Type Culture Collection (Rockville, Md.) and others were gifts of friends.
(§2) To evaluate activities of new compounds on growth of EGFR-inhibitor-resistant cells, two EGFRi-resistant cell lines, i.e., HCC827-TR16 and HCC827-OR16 were established using a method described by Eberlein et al. (Eberlein, Stetson et al. 2015). […] Resistant cells were collected and stabilized after 5 weeks (cycle 5). […] The resistant cells were sorted using 96-well dishes by culturing cells with density of 0.1, 1, 10, and 100 cells per well.
(§3) All cell lines were maintained in RPMI-1640 (GIBCO, Gaithersburg, Md.) with 10% heat-inactivated bovine serum (FBS) (Wang, Ossowski et al. 2004).
(§4) Sulforhodamine B (SRB) was used to estimate cell growth as described previously (Skehan, Storeng et al. 1990). Briefly, cells grown exponentially were aliquoted into 96-well plates at a density of 2,500 to 5,000 cells/200 μl per well in RPMI 1640 medium containing 10% FBS. After twenty-four hours, the cells were exposed to indicated concentrations of tested compounds for 72 hrs or otherwise as indicated. The cells were then fixed with 10% trichloride acetic acid for 2 h at 4° C. The 10% trichloride acetic acid was removed, and the dishes were washed 5 times with tape water, and air-dried. The fixed and dried cells were then stained with 0.4% SRB in 1% acetic acid for 25 min, and the dishes were washed 5 times with 1% acetic acid and air-dried overnight. 200 μl of 10 mM of Tris buffer (pH 10.0) were added, and the dishes were rotated to completely dissolve the color. Absorbance at 570 nm, with a reference wavelength 690 nm, was measured on a 96-well microplate reader (SPECTRO Star^Nano, BMG Labtech). Mean, standard deviation (SD) and the percent of growth inhibition at each concentration point of the treatment were calculated. The percent of growth inhibition as defined as (1−T/C)×100 where T is the mean of the absorbance at 570 nm from the treatment, and C from control (drug vehicle only). IC50 was calculated using Sigma-plot software by regression of growth-concentration curve from each drug treatment.
A general note: Sulforhodamine B stains cellular protein and so reports cell mass.

The subject of another assay is 22RV1. In words: Cell growth inhibition by SRB method. Type of assay: cell-based, human. The following applies: for growth inhibition of 22RV1 cells (in words): EGFR negative cell line, 72 hrs, FIG. 2 and 3; for IC50: 72 hrs exposure, SRB.
Excerpt: as §1, §3, §4

The test system of another assay is HCC827OR16. In words: Cell growth inhibition by SRB method. It is filed as cell-based, human. The following applies: AZD9291-resistant line, 72 hrs exposure.
Excerpt: as §1, §2, §3, §4

For another assay, the system named is HCC827TR16. Briefly: Cell growth inhibition by SRB method. It is filed as cell-based. The following applies: Homo sapiens, Tarceva-resistant line, 72 hrs exposure.
Excerpt: as §1, §2, §3, §4

For a further assay, the system named is LNCaP. In words: Cell growth inhibition by SRB method. The following applies: for IC50: Homo sapiens, LNCaP, 72 hrs exposure, SRB. It is filed as cell-based, human.
Excerpt: as §1, §3, §4

Assay [1] has as its system HCC827 P and HCC827 TR cells. In words: Reno647/Carboplatin combination, median effects (SRB, CalcuSyn). Type of assay: cell-based, human. As to the method: As described in Example 2.1. Two cell lines, HCC827-P and HCC827-TR (Tarceva-resistant HCC727 cells-an EGFRi resistant cell line with MET amplification) (Wang, Pursell et al. 2013) were used in the combination study. Exponentially growing HC[…] and HCC827-TR cells were seeded into 96-wells dishes at density of 3,000 cells per well. Twenty-four hours later, the cells were exposed concurrently to serial dilution of Reno647 or Carboplatin or Camptothecin alone or in combination at a ratio of 1:50 with Carboplatin or at ratio 1:1 with Camptothecin for 3 days. Reno647 were concurrently and sequentially with paclitaxel (Taxol) at ratio of 200:1 for 6 days. For sequential exposure, the cells were treated with Reno647 for 3 days, after removal of the drug containing medium, the cells were treated with Taxol for additional 3 days, or the cells were treated by Taxol first followed by the treatment with Reno 647. After incubation for 6 days, the cell growth was measured by SRB as described previously in Example 2.1 section, and the percentages of inhibition (1-T/C) % were calculated, and data were analyzed by a PC program, CalcuSyn, Biosoft (edited by T.-C. Chou, Memorial Sloan-Kettering Cancer Center, New York, and M. P. Hayball, at Cambridge, UK, 1996). The computer-calculated combination index (CI) was used to judge the outcomes of a combination: […] It has long been accepted that chemotherapy provided some benefit for patients with non-small-cell lung cancer (NSCLC) in terms of quality of life and symptomatology as well as modest improvements in survival. […] Cell growth was determined by SRB as described above.

Another assay concerns ACHN. Briefly: Cell growth inhibition by SRB method. It is filed as cell-based, human. The following applies: 72 hrs exposure.
Excerpt: as §1, §3, §4

Another assay concerns tested cancer cell lines. In words: Cell growth inhibition by SRB method, tested cancer cell lines overall. The following applies: data not provided. It is filed as cell-based, human.
Excerpt: as §1, §3, §4

The IC50 is the midpoint of a concentration-inhibition curve. A low value points to greater potency.

With `O=C(c1cc(Cc2n[nH]c(=O)c3ccccc23)ccc1F)N1CCN(C(=O)C2CC2)CC1` [AZD2281, reference compound], the “growth inhibition of HCC827P cells (in words)” value in the assay on HCC827P (EGFR positive cell line, 72 hrs, FIG. 3) was “no activity”. Also, the “growth inhibition of 22RV1 cells (in words)” value with 22RV1 is on record as “significantly inhibited”.
On to `C=CC(=O)Nc1cc(Nc2nccc(-c3cn(C)c4ccccc34)n2)c(OC)cc1N(C)CCN(C)C` [AZD9291, reference compound], for which the IC50 with HCC827OR16 (Homo sapiens) was 2000 nM; in the assay on HCC827P (Homo sapiens) it was under 200 nM; with HCC827TR16, 1200 nM; in the assay on 22RV1 (Homo sapiens, 22Rv1), 650 nM; in the assay with LNCaP, 2000 nM.
With `N.N.O=C([O-])C1(C(=O)[O-])CCC1.[Pt+2]` [Carboplatin, reference compound], the “dose reduction in combination” value in assay [1] (Reno647:Carboplatin 1:50) is reported as 2 fold. Besides, the “median effects, two drugs combined” value in assay [1] (Reno647:Carboplatin 1:50, concurrent, cell line not stated) is 3.38 µM. In assay [1] (single agent, cell line not stated), the “median effects, drug alone” value is 8.39 µM.
Consider `C#Cc1cccc(Nc2ncnc3cc(OCCOC)c(NC(=O)c4ccc(Br)c([N+](=O)[O-])c4)cc23)c1` [Reno636, 4-Bromo-N-[4-(3-ethynyl-phenylamino)-7-(2-methoxy-ethoxy)-quinazolin-6-yl]-3-nitro-benzamide], for which the 50% inhibitory concentration (IC50) with HCC827OR16 (Homo sapiens) was over 5000 nM; in the assay on HCC827P (Homo sapiens), 200 nM; with HCC827TR16, over 5000 nM; in the assay on 22RV1 (Homo sapiens, 22Rv1), over 5000 nM; in the assay on ACHN (Homo sapiens, ACHN) it was over 5000 nM. For the same compound, the “activities against all tested cancer cells lines compared with NK-2206 and MLN8237” value (from here on “activities … compared with NK-2206 and MLN8237”) in the assay with tested cancer cell lines was “better activities”.
As to `C#Cc1cccc(Nc2ncnc3cc(OCCOC)c(NC(=O)c4ccc(Cl)c([N+](=O)[O-])c4)cc23)c1` [Reno648, 4-Chloro-N-[4-(3-ethynyl-phenylamino)-7-(2-methoxy-ethoxy)-quinazolin-6-yl]-3-nitro-benzamide], the IC50 is over 5000 nM in the assay on HCC827OR16 (Homo sapiens); 150 nM with HCC827P (Homo sapiens); over 5000 nM in the assay on HCC827TR16; over 5000 nM with 22RV1 (Homo sapiens, 22Rv1); over 5000 nM in the assay with LNCaP. The “activities … compared with NK-2206 and MLN8237” value in the assay on tested cancer cell lines is “better activities”.
Take `C#Cc1cccc(Nc2ncnc3cc(OCCOC)c(NC(=O)c4ccc(I)c([N+](=O)[O-])c4)cc23)c1` [Reno649, 4-Iodo-N-[4-(3-ethynyl-phenylamino)-7-(2-methoxy-ethoxy)-quinazolin-6-yl]-3-nitro-benzamide]: the IC50 was 1800 nM in the assay on HCC827OR16 (Homo sapiens); 200 nM in the assay on HCC827P (Homo sapiens); over 5000 nM in the assay on HCC827TR16; 2300 nM in the assay with 22RV1 (Homo sapiens, 22Rv1); over 5000 nM in the assay with LNCaP. Also, in the assay on tested cancer cell lines, the “activities … compared with NK-2206 and MLN8237” value is given as “better activities”.
`C#Cc1cccc(Nc2ncnc3cc(OCCOC)c(OCCOC)cc23)c1` [Tarceva, reference compound]: the “IC50 HCC827OR16” value with HCC827OR16 is reported as “almost unmeasurable”. The IC50 with HCC827OR16 (Homo sapiens) is over 5000 nM; in the assay on HCC827P (Homo sapiens), under 200 nM; in the assay on HCC827TR16, over 5000 nM; in the assay on 22RV1 (Homo sapiens, 22Rv1), over 5000 nM; in the assay on ACHN (Homo sapiens, ACHN) it was 625 nM; in the assay with LNCaP it was over 5000 nM. In addition, the “growth inhibition of 22RV1 cells (in words)” value in the assay with 22RV1 is “relatively weak response”. Also, the “growth inhibition of LNCaP cells (in words)” value in the assay with LNCaP (72 hrs, FIG. 2) is given as “relatively weak response”.
In the case of “(3-Ethynyl-phenyl)-[6-(2-methoxy-ethoxy)-7-nitro-naphthalen-1-yl]-amine [Reno635]”, the IC50 is over 5000 nM in the assay on HCC827OR16, over 5000 nM with HCC827P, 5000 nM in the assay with 22RV1 and 3750 nM in the assay on ACHN.

(Values after patent US20190169134A1, “NOVEL CLASS OF QUINOLONE HETEROCYCLIC AROMATIC MOLECULES FOR CANCER TREATMENT” (RenoTarget Therapeutics, Inc., priority 2016, published 2019).)
